Experimental data reported in patent US8450354B2, “Substituted imidazo[1,2-b]pyridazine derivatives, pharmaceutical compositions, and methods of use as β-secretase inhibitors” (High Point Pharmaceuticals, LLC, priority 2010, dated 2013).

Assays:
[1] = test system: Aβ1-40 secreted from HEK293 cells stably expressing wildtype human APP695 protein (HEK-APPwt cells); proteolytic activity of BACE; assay: Aβ Cell Based Assay (Aβ1-40 secretion, ELISA); conditions: 6 hours incubation, reduction of Aβ1-40 secretion, asterisk = mean
Protocol: (§1) Aβ Cell Based Assay Procedure
(§2) In the following assay, the proteolytic activity of BACE in cells exposed to varying concentrations of a compound of interest is measured by observing the amount of Aβ1-40 secreted from HEK293 cells (Human Embryonic Kidney epithelial cell line) stably expressing wildtype human APP695 protein (HEK-APPwt cells).
(§3) HEK-APPwt cells were grown in high glucose DMEM (Dulbecco's Modified Eagles Medium SIGMA Cat. #D5796) supplemented with 25 mM HEPES (4-(2-hydroxyethyl)-1-piperazineethanesulfonic acid) (pH 7.4) (Invitrogen Cat. #15630-114), 0.1 mM NEAA (Non-essential Amino Acids) (BioWhittaker Cat. #13-114E), 10% fetal bovine serum (SIGMA Cat. #F4135) and 250 μg/mL hygromycin (Invitrogen Cat. #10687-010) in T-225 flasks at 37° C. with 5% CO2 and humidity control.
(§4) Test compounds were initially prepared in DMSO and diluted with DMEM media containing 2% FBS (Fetal bovine serum). Ten standard compound solutions were prepared having a range of concentrations. The standard compound solutions were used to determine the EC50 of the test compound. The range of concentrations chosen may depend on the compound's predicted potency.
(§5) To prepare cells for the assay, a flask containing HEK-APPwt cells were trypsinized briefly (1 mL trypsin), and once the cells detached, 4 mL of 10% FBS-DMEM was added to the flask. The detached cells were centrifuged at 900 rpm for 5 min to form a pellet.
(§6) The HEK-APPwt cell pellet was re-suspended with 10 mL DMEM media containing 2% FBS. 80 μL of the cell suspension was added to each well of a 96-well cell culture plate to give 100×10^4 cells/ml. 10 μL of a standard compound solution was added to each well of the 96-well cell culture plate followed by 10 μL of Alamar blue solution. The cells were incubated at 37° C. in a 5% CO2 incubator for 6 hours.
(§7) At the end of the incubation, the plates were removed from incubator, and the supernatant was collected. Aβ1-40 concentration in the medium was measured by using a commercial Aβ1-X ELISA kit (IBL, Japan Cat. #27729). Briefly, the ELISA plates were coated with an anti-human Aβ (N)(82E1) mouse IgG monoclonal antibody. A horseradish peroxidase conjugated anti-human Aβ11-28 mouse IgG monoclonal antibody was used for detection. The cell culture supernatant was diluted with EIA buffer+protease inhibitors (kit buffer containing protease inhibitors (1 mL PI/30 mL buffer)). A 100 μL aliquot of the diluted supernatant was added to each well of the ELISA plate and incubated for 6 hrs at 4° C. The ELISA plate was washed 8 times with phosphate buffered saline (PBS) containing 0.05% TWEEN 20.
(§8) A 100 μL of detection antibody was then added and incubated for 1 hour at 4° C. The plate was washed 8 times with PBS buffer containing 0.05% Tween 20 followed by addition of 100 μL of the chromogen tetramethylbenzidine (TMB). The plate was incubated in the dark at room temperature for about 30 min and a stop solution (1N H2SO4) was added.
(§9) The intensity of the color developed was measured at 450 nm. The optical density at 450 nm (OD450) is proportional to the concentration of human Aβ1-40 secreted by the cell. As a reference, N—[N-(3,5-difluorophenacetyl-L-alanyl)]—S-phenylglycine t-butyl ester (DAPT, a γ-secretase inhibitor) was used to indicate 100% inhibition of […]. Thus, the assay measures the ability of a compound of interest to reduce Aβ1-40 secretion. Compound potency is reported in Table 3 as the EC50 by calculating the percent inhibition at all concentration levels and the data were fit with non-linear curve fitting algorithm using GraphPad Prism.

[2] = molecular target: T1, BACE-1 enzyme (Homo sapiens, UniProt P56817); assay: BACE Fluorescence Resonance Energy Transfer (FRET) Assay; type: biochemical; conditions: pH 4-4.5, 30 min pre-incubation, about 1.5 hours reaction, asterisk = mean
T1 construct: purchased R & D Systems 931AS
Protocol: BACE Fluorescence Resonance Energy Transfer (FRET) Assay
In the following assay, the proteolytic activity of BACE is measured by observing cleavage of a fluorescent group from a peptide substrate containing a rhodamine fluorescent donor and a quenching acceptor.
The inhibitory activity of compounds of Formula (I) may be compared to a statine derived control inhibitor STA200 (MP Biomedical Cat. #STA-200). The cleavage reaction occurs when a BACE-1 substrate (Invitrogen, Cat. #P2986) was added to a reaction mixture containing BACE-1 enzyme (R & D Systems, Cat. #931AS) and allowed to proceed for about 1.5 hours. Fluorescence, used as a marker of BACE activity, is monitored using 540 nm excitation and 585 nm emission wavelengths (Envision, Perkin Elmer).
A typical assay reaction contains BACE-1 enzyme-in assay buffer (50 mM sodium acetate, pH 4-4.5, 0.01% CHAPS (3-[(3-Cholamidopropyl)dimethylammonio]-1-propanesulfonate), 0.0125% TritonX-100, 0.006% EDTA) which is pre-incubated for 30 minutes with test compound in 7.5% DMSO. The reaction is initiated with the addition of BACE-1 substrate in assay buffer and allowed to proceed for about 1.5 hours at room temperature. Assays are conducted in black 384-well microtiter plates and scanned at room temperature using 540 nm excitation and 585 nm emission wavelengths.
In some instances, the percent inhibition at a given concentration is reported instead of the IC50.

[3] = Aβ Cell Based Assay (Aβ1-40 secretion, ELISA); design: species or system human; conditions: Homo sapiens, HEK293; HEK-APPwt cells, 6 hours incubation, reduction of Aβ1-40 secretion; asterisk = mean
Protocol: as §1, §2, §3, §4, §5, §6, §7, §8, §9

T1 sequence (P56817 46-457 limits assumed): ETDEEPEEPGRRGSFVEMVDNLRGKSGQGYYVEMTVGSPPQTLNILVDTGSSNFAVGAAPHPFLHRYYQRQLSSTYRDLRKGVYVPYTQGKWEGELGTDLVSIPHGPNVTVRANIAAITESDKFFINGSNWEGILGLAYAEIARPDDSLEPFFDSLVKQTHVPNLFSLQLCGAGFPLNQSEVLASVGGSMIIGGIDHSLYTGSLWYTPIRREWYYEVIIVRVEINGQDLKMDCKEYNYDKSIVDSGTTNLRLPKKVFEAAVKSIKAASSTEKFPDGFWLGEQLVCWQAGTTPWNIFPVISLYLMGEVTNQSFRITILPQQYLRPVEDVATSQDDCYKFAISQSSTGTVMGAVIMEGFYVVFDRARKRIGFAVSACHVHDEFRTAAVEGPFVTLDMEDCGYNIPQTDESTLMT

IC50 [2] | EC50 [3] | Compound | EC50 [1]
0.172 µM | – | O=C(Nc1nc2cc(-c3cccc(OC(F)(F)F)c3)ccc2[nH]1)c1cn2nc(OCCO)ccc2n1 [Example 143, 6-(2-Hydroxy-ethoxy)-imidazol[1,2-b]pyridazine-2-carboxylic acid [5-(3-trifluoromethoxy-phenyl)-1H-benzoimidazol-2-yl]-amide] | 1.07 µM
0.216 µM | 2.62 µM | O=C(Nc1nc2cc(-c3cc(F)cc(Cl)c3)ccc2[nH]1)c1cn2nc(OCCN3CCCCCC3)ccc2n1 [Example 53] | –
0.089 µM | 2.27 µM | CC1(C)CCC(c2ccc3[nH]c(NC(=O)c4cn5nc(N6CC[C@@H](O)C6)ccc5n4)nc3c2)CC1 [Example 85] | –
0.18 µM | 1.47 µM | CC1(C)CCC(c2ccc3[nH]c(NC(=O)c4cn5nc(N6CCC(O)CC6)ccc5n4)nc3c2)CC1 [Example 83] | –
0.163 µM | 0.71 µM | CCCC[C@H](O)COc1ccc2nc(C(=O)Nc3nc4cc(-c5cc(F)cc(Cl)c5)ccc4[nH]3)cn2n1 [Example 127] | –
0.128 µM | 0.94 µM | O=C(Nc1nc2cc(-c3cccc(Cl)c3)ccc2[nH]1)c1cn2nc(OCCO)ccc2n1 [Example 144, 6-(2-hydroxy-ethoxy)-imidazo[1,2-b]pyridazine-2-carboxylic acid [5-(3-chloro-phenyl)-1H-benzoimidazol-2-yl]-amide] | –
0.315 µM | 3.13 µM | CN1CCN(CCOc2ccc3nc(C(=O)Nc4nc5cc(-c6cccc(OC(F)(F)F)c6)ccc5[nH]4)cn3n2)CC1 [Example 35] | –
0.117 µM | 0.45 µM | COC[C@H](COc1ccc2nc(C(=O)Nc3nc4cc(-c5cccc(C(F)(F)F)c5)ccc4[nH]3)cn2n1)OC [Example 135] | –
0.222 µM | 1.41 µM | O=C(Nc1nc2cc(-c3cccc(C(F)(F)F)c3)ccc2[nH]1)c1cn2nc(OCCN3CCNC3=O)ccc2n1 [Example 26] | –
0.234 µM | 0.59 µM | O=C(Nc1nc2cc(-c3cccc(OC(F)(F)F)c3)ccc2[nH]1)c1cn2nc(OCCN3CCOCC3)ccc2n1 [Example 32] | –
0.372 µM | 0.12 µM | C[C@H](O)COc1ccc2nc(C(=O)Nc3nc4cc(-c5ccc(C(F)(F)F)c(Cl)c5)ccc4[nH]3)cn2n1 [Example 123, 6-((S)-2-Hydroxy-propoxy)-imidazo[1,2-b]pyridazine-2-carboxylic acid [5-(3-chloro-4-trifluoromethyl-phenyl)-1H-benzoimidazol-2-yl]-amide] | –
0.251 µM | 0.48 µM | CC(C)(O)COc1ccc2nc(C(=O)Nc3nc4cc(-c5cccc(OC(F)(F)F)c5)ccc4[nH]3)cn2n1 [Example 112] | –
0.169 µM | 0.23 µM | O=C(Nc1nc2cc(-c3cc(F)cc(Cl)c3)ccc2[nH]1)c1cn2nc(OCCCCO)ccc2n1 [Example 130] | –
0.3 µM | 2.93 µM | CN1CC[C@H](Oc2ccc3nc(C(=O)Nc4nc5cc(-c6cc(F)cc(Cl)c6)ccc5[nH]4)cn3n2)C1 [Example 69] | –
0.245 µM | 0.15 µM | O=C(Nc1nc2cc(-c3ccc(F)c(Cl)c3)ccc2[nH]1)c1cn2nc(OCCO)ccc2n1 [Example 131, 6-(2-Hydroxy-ethoxy)-imidazo[1,2-b]pyridazine-2-carboxylic acid [5-(3-chloro-4-fluoro-phenyl)-1H-benzoimidazol-2-yl]-amide] | –
0.248 µM | 3.81 µM | O=C(Nc1nc2cc(-c3cccc(C(F)(F)F)c3)ccc2[nH]1)c1cn2nc(OCCN3CCCCC3)ccc2n1 [Example 46] | –
0.307 µM | 2.68 µM | O=C(Nc1nc2cc(-c3cccc(C(F)(F)F)c3)ccc2[nH]1)c1cn2nc(OCCN3CCCCCC3)ccc2n1 [Example 40] | –
0.298 µM | 0.77 µM | C[C@H](O)CCOc1ccc2nc(C(=O)Nc3nc4cc(-c5cc(F)cc(Cl)c5)ccc4[nH]3)cn2n1 [Example 119] | –
0.172 µM | 1.3 µM | CN(C)C(=O)COc1ccc2nc(C(=O)Nc3nc4cc(-c5cccc(C(F)(F)F)c5)ccc4[nH]3)cn2n1 [Example 141] | –
0.21 µM | 1.8 µM | CN(C)CCN(C)CCOc1ccc2nc(C(=O)Nc3nc4cc(-c5cc(F)cc(Cl)c5)ccc4[nH]3)cn2n1 [Example 49] | –
0.203 µM | 0.75 µM | O=C(Nc1nc2cc(-c3cccc(OC(F)(F)F)c3)ccc2[nH]1)c1cn2nc(OC[C@H]3CC[C@@H](CO)O3)ccc2n1 [Example 134] | –
0.419 µM | 0.3 µM | CCC[C@@H](O)COc1ccc2nc(C(=O)Nc3nc4cc(-c5cc(F)cc(Cl)c5)ccc4[nH]3)cn2n1 [Example 124] | –
0.357 µM | 0.89 µM | CC(C)[C@H](O)COc1ccc2nc(C(=O)Nc3nc4cc(-c5cc(F)cc(Cl)c5)ccc4[nH]3)cn2n1 [Example 108] | –
0.134 µM | 0.63 µM | O=C(Nc1nc2cc(-c3cc(F)cc(Cl)c3)ccc2[nH]1)c1cn2nc(N3CCC(O)CC3)ccc2n1 [Example 142, 6-(4-Hydroxy-piperidin-1-yl)-imidazo[1,2-b]pyridazine-2-carboxylic acid [5-(3-chloro-5-fluoro-phenyl)-1H-benzoimidazol-2-yl]-amide] | –
0.189 µM | 0.78 µM | C[C@H](O)[C@@H](C)Oc1ccc2nc(C(=O)Nc3nc4cc(-c5cccc(C(F)(F)F)c5)ccc4[nH]3)cn2n1 [Example 99] | –
